Assay results as given in ChEMBL document CHEMBL1201862, “PubChem BioAssay data set” (2004).
Active and inactive are the calls of the source.

Tests used:
[1] = target: Arf-GAP with SH3 domain, ANK repeat and PH domain-containing protein 1 (Homo sapiens, UniProt Q9ULH1); assay type: functional;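 note: biochemical fluorescence polarization dose–response screen measuring inhibition of ASAP1; ASAP1 GAP domain stimulating GTP hydrolysis by truncated human ARF1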
X-box-binding protein 1 = X-box-binding protein 1 (Homo sapiens, UniProt P17861); assay type: functional, Cricetulus griseus;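 note: confirmatory dose-response counter-screen serving a CHOP assay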
Sequence of X-box-binding protein 1 (P17861 whole entry): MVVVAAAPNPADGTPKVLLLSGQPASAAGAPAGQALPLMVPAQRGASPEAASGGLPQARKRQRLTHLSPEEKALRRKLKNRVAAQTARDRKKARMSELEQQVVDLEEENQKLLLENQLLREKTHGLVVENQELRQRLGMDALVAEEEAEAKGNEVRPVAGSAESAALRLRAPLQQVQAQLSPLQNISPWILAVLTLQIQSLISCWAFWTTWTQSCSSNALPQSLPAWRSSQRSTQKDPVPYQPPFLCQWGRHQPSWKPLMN

[2] = target: ADP-ribosylation factor GTPase-activating protein 1 (Rattus norvegicus, UniProt Q62848); assay: Fluorescence polarization-based biochemical high throughput dose response screening assay to identify inhibitors of ADP-ribosylation factor GTPase activating protein 1 (ARFGAP1).; assay type: functional
Sequence of ADP-ribosylation factor GTPase-activating protein 1 (Q62848 whole entry): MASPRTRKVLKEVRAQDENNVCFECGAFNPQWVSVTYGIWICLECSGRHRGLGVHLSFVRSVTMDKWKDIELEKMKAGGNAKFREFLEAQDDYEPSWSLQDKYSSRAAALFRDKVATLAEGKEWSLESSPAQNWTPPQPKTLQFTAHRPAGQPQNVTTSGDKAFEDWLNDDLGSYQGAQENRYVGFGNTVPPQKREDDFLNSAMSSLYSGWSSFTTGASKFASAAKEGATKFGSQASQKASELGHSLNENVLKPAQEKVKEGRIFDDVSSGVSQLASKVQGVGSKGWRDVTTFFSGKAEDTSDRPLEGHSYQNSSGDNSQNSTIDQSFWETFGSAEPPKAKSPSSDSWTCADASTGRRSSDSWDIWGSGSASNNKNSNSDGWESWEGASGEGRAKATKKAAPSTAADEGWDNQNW

[3] = target: DNA damage-inducible transcript 3 protein (Mus musculus, UniProt P35639); assay type: functional, Cricetulus griseus
Sequence of DNA damage-inducible transcript 3 protein (P35639 whole entry): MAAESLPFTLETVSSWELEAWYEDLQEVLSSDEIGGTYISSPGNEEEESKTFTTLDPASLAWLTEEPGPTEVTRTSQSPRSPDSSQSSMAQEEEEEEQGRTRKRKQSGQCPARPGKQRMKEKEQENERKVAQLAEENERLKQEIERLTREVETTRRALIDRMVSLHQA

Fatty acid synthase [4] = target: T1, Fatty acid synthase (Homo sapiens, UniProt P49327); assay: inhibition of human FAS-TE enzyme activity – biochemical, kinetic fluorescence intensity, dose response (AID 624326); assay type: functional;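 note: rate of fluorescence rise from hydrolysis of a fluorogenic O-methyl fluorescein ester substrate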
T1 sequence (P49327 whole entry): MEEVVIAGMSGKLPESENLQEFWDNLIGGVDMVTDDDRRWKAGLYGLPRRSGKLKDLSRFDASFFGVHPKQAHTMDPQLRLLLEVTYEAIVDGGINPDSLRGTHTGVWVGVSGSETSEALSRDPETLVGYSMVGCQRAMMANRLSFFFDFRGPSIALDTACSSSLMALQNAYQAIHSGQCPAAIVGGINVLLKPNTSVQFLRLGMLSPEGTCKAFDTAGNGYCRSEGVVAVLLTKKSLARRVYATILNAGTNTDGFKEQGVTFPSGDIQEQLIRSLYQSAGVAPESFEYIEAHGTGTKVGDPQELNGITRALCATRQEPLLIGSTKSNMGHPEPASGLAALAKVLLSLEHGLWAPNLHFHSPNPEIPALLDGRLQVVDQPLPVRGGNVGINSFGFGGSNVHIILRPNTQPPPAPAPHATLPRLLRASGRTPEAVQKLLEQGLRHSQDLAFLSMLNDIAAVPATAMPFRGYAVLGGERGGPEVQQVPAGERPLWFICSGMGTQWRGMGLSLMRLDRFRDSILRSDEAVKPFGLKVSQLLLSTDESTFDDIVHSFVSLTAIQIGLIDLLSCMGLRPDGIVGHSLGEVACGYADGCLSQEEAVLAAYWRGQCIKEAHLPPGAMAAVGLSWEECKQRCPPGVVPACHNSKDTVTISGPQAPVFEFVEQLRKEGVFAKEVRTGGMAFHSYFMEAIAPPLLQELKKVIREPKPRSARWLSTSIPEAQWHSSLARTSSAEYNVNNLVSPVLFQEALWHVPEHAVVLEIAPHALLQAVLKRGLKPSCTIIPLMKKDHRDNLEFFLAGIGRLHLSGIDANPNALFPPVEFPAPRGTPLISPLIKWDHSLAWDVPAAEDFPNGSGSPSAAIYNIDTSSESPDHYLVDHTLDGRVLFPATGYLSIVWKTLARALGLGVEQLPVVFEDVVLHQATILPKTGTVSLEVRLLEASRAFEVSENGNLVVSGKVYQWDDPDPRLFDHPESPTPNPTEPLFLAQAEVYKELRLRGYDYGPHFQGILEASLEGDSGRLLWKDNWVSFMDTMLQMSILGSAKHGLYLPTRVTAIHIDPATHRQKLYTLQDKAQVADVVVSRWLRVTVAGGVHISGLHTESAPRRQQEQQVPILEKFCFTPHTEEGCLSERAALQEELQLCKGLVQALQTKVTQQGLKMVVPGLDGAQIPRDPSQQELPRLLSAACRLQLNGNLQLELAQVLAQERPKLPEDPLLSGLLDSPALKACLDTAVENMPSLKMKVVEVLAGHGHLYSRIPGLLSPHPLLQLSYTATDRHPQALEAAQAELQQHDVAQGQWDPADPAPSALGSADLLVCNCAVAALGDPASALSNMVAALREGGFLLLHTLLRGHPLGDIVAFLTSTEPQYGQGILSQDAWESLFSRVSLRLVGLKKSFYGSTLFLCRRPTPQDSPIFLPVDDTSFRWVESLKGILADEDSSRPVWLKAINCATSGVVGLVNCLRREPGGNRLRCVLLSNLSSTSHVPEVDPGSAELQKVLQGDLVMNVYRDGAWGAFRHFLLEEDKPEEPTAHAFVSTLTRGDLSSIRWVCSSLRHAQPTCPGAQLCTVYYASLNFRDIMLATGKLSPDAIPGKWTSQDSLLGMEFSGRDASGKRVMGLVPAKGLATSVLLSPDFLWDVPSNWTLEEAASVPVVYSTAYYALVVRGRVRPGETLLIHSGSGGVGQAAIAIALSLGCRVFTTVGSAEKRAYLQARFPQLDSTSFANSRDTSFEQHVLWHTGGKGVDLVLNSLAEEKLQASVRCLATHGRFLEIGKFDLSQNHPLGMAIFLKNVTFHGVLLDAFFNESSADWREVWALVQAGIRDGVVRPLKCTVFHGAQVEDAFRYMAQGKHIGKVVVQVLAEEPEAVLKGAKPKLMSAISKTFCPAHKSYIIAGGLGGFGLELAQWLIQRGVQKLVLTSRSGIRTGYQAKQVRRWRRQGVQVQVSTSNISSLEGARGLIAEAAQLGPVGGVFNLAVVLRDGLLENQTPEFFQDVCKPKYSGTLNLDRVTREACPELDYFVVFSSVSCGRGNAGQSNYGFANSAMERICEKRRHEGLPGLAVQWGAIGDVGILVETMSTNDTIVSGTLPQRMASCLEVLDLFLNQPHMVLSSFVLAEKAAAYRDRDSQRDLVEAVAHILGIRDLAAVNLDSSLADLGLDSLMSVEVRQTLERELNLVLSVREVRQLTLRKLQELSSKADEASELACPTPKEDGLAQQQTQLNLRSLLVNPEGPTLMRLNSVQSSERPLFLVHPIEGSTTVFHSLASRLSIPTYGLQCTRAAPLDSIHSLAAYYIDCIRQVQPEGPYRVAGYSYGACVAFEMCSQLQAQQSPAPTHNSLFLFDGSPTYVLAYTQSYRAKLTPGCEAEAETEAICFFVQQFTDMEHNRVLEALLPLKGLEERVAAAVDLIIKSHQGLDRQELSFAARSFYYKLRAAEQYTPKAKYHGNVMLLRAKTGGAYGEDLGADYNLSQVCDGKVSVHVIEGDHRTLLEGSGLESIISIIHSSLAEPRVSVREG

Protein RecA = target: T2, Protein RecA (Mycobacterium tuberculosis, UniProt P9WHJ3); assay: Fluorescence Cell-Free Homogeneous Dose Retest to Identify Inhibitors of RecA-Intein Splicing Activity. [Related pubchem assays (depositor defined):AID2097, AID2223, AID489010, AID492950]; assay type: functional
T2 sequence (P9WHJ3 whole entry): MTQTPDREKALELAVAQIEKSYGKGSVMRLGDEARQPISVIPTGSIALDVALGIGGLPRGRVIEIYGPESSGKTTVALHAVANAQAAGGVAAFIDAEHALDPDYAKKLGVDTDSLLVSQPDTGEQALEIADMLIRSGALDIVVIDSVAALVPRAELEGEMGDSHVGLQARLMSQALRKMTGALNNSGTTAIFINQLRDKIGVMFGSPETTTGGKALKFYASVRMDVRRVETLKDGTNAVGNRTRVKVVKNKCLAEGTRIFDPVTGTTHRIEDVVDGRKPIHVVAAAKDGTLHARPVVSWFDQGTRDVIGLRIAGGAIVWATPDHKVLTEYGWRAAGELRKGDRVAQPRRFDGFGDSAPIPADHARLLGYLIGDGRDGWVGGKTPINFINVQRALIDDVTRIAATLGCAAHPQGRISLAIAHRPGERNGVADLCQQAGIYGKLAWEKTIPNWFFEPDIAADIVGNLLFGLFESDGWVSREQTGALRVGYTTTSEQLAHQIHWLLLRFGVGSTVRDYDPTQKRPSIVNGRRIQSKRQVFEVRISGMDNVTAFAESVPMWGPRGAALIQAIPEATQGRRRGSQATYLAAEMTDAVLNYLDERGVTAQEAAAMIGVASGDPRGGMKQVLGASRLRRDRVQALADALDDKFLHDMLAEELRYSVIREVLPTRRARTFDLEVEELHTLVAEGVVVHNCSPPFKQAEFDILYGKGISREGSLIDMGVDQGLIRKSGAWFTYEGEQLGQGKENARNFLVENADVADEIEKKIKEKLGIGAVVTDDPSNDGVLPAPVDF

Prothrombin = Prothrombin (Homo sapiens, UniProt P00734); assay: Thrombin 1536 HTS Dose Response Confirmation. [Related pubchem assays: 1046 (Thrombin 1536 HTS; hits were confirmed in this assay)]; assay type: functional
Genome polyprotein = Genome polyprotein (dengue virus type 2, UniProt P29990); assay: flavivirus cap methylation enzyme inhibition – biochemical, confirmation dose response, primary screen (AID 588689); assay type: functional
[5] = target: T3, Replicative DNA helicase DnaB (Mycobacterium tuberculosis, UniProt P9WMR3); assay: DnaB intein splicing inhibitors, dose response, biochemical, cell-free fluorescence (AID 449749); assay type: functional
T3 sequence (P9WMR3 whole entry): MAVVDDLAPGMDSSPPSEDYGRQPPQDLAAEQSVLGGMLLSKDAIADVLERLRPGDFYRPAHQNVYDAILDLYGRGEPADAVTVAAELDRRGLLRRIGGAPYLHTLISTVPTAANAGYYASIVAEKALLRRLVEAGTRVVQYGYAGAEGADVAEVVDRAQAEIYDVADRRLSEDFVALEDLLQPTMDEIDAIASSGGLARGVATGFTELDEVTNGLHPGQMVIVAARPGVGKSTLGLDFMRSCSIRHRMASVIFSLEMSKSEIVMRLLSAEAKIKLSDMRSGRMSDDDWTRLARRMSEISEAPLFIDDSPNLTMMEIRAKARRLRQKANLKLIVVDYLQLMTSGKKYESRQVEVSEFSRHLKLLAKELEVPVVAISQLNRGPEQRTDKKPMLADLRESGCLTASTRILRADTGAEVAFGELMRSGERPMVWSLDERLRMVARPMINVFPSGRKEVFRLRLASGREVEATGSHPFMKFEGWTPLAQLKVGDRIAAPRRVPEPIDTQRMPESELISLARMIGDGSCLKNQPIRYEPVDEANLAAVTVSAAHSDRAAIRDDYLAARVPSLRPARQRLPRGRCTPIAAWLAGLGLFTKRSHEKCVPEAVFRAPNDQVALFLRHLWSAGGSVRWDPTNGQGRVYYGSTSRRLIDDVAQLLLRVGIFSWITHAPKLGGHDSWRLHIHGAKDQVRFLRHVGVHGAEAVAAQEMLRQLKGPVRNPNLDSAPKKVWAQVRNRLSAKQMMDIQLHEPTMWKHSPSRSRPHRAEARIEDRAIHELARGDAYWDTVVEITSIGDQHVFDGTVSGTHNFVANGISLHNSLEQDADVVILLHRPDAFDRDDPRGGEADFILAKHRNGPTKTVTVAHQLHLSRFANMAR

Fatty acid synthase [6] = target: T1, Fatty acid synthase; assay: inhibition of human FAS-TE enzyme activity – biochemical, endpoint fluorescence intensity, uHTS hits, dose response (AID 624327); assay type: functional;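 note: fluorescence from hydrolysis of an O-methyl fluorescein acyl ester substrate by the enzyme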
[7] = target: DNA dC->dU-editing enzyme APOBEC-3A (Homo sapiens, UniProt P31941); assay: Dose Response confirmation of small molecule APOBEC3A DNA Deaminase Inhibitors via a fluorescence-based single-stranded DNA deaminase assay. [Related pubchem assays (depositor defined):AID493011, AID493024]; assay type: functional
Sequence of DNA dC->dU-editing enzyme APOBEC-3A (P31941 whole entry): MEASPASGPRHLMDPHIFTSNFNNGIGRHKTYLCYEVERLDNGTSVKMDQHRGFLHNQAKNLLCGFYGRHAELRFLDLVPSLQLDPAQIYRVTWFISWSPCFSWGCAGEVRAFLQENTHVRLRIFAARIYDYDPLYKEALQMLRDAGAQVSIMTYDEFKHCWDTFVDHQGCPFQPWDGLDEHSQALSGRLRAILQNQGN

[8] = target: DNA dC->dU-editing enzyme APOBEC-3G (Homo sapiens, UniProt Q9HC16); assay type: functional;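 note: Dose-response counterscreen measuring inhibition of APOBEC3G DNA deaminase activity, run while confirming APOBEC3A inhibitors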
Sequence of DNA dC->dU-editing enzyme APOBEC-3G (Q9HC16 whole entry): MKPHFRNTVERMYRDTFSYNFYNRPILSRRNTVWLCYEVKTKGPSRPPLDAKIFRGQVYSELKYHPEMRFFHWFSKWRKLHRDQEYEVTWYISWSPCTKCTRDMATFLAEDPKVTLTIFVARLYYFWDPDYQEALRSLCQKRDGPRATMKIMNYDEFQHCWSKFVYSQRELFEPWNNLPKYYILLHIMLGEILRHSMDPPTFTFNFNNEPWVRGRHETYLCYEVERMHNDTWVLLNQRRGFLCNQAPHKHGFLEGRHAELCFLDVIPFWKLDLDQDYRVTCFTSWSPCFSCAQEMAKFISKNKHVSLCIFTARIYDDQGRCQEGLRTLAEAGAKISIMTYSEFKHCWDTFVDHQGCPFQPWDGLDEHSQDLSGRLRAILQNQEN

Sequence of Arf-GAP with SH3 domain, ANK repeat and PH domain-containing protein 1 (Q9ULH1 whole entry, the tested form may be a part): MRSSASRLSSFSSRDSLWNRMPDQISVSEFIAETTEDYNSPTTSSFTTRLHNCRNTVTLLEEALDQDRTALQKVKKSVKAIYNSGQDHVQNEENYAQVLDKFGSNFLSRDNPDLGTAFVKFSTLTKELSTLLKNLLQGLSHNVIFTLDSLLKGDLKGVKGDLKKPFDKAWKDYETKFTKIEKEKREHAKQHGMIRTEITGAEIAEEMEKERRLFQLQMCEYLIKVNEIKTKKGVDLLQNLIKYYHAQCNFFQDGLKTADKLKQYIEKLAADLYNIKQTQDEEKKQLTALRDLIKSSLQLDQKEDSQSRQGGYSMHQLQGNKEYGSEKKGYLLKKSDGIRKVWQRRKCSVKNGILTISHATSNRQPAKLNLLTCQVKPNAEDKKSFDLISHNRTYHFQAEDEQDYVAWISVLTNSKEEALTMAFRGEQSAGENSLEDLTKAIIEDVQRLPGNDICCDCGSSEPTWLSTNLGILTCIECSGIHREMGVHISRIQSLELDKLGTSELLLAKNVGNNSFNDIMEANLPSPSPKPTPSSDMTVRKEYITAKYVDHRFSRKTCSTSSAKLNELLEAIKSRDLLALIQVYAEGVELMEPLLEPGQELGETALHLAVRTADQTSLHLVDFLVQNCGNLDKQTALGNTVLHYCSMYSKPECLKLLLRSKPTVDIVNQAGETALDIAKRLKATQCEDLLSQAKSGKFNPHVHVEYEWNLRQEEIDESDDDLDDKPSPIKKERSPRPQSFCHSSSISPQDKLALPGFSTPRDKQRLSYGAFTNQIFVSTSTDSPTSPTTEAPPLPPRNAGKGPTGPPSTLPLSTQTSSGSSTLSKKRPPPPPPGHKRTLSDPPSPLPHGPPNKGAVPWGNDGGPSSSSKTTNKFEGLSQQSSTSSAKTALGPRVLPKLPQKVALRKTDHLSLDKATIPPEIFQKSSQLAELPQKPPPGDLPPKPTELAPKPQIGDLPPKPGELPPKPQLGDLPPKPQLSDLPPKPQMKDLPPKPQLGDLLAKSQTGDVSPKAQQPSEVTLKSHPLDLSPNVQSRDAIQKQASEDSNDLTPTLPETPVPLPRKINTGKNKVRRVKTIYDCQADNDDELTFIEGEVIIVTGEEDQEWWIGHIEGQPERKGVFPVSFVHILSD

SMILES | IC50 [1] | Absolute IC50 (XBP1) (X-box-binding protein 1) [µM] | IC50 [2] | Absolute IC50 (CHOP) [3] [µM] | IC50 (Fatty acid synthase [4]) | EC50 (Protein RecA) | IC50 (Prothrombin) | IC50 (Genome polyprotein) | AC50 [5] | IC50 (Fatty acid synthase [6]) | IC50 [7] | IC50 [8]
Cn1c(=O)n(CCOc2ccc(Cl)cc2Cl)c2ccccc21 | 18.4 µM (inactive) | 10 | 18.4 µM (inactive) | 10 |  |  |  |  |  |  |  | 
Cc1cc(C)c(S(=O)(=O)ON2C(=O)c3ccccc3C2=O)cc1C |  |  |  | 10 | 3.91 µM (active) | 10.2 µM (active) | 2.57 µM (active) | 76.2 µM (active) | > 380 µM (inactive) | 0.744 µM (active) |  | 
CC(=O)Nc1nc(CC(C)C)cc(-c2ccco2)c1C#N |  |  |  |  |  |  |  |  |  |  | 4.18 µM (active) | 5.76 µM (active)
